The text below walks through data of article PMC5913971, “A Novel Piperazine-Based Drug Lead for Cryptosporidiosis from the Medicines for Malaria Venture Open-Access Malaria Box” (Antimicrobial Agents and Chemotherapy, 2018).

Data set [1] relates to C. hominis TU502. Kind of data set: Cryptosporidium hominis growth inhibition assay (1,536-well). The format is cell-based. As to conditions: HCT-8 cells, read-out: EC50 against C. hominis (isolate TU502). How it is done: Cryptosporidium hominis growth inhibition assays were performed at the California Institute for Biomedical Research (Calibr), San Diego, CA, using a slightly modified immunofluorescence assay to enable automated compound handling and the use of 1,536-well microtiter plates ([19]). The HCT-8 culture medium was replaced with RPMI 1640 medium supplemented with 2% heat-inactivated horse serum, 100 U/ml penicillin, and […] streptomycin 24 h prior to infection with either C. hominis or the C. parvum Iowa isolate, used as a reference. […] Imaging was performed using a CellInsight CX5 High Content screening platform (Thermo Scientific) with a 10× objective and acquisition of one microscopic field per well. Images were processed using HCS Studio Scan software, and the selected-object count (HCT-8 cells) and spot count (C. hominis) were analyzed in Genedata Screener (version 13.0; Standard). Dose-response curves and EC values were calculated using the Smart Fit function of Genedata Analyzer.

Data set [2] has as its system HCT-8 cells. Kind of data set: Host cell toxicity assay (CellTiter AQueous). It counts as cell-based, Human. How it is done:
Host cell toxicity was measured as described previously ([20]). HCT-8 cells were grown to >95% confluence in 384-well plates. Increasing concentrations of compounds were added, and assay plates were incubated at 37°C under 5% CO2 for 48 h. The corner wells of each plate were trypsinized to remove cells and were used as blanks for measuring absorbance at 490 nm. Cell proliferation was measured using the CellTiter AQueous assay kit (Promega, USA) according to the manufacturer's instructions and was expressed as the percentage of proliferation with the vehicle control (DMSO). GraphPad Prism software, version 6.01, was used to plot graphs and calculate the concentration that inhibits 50% of host cell proliferation relative to that with the DMSO control (50% toxic concentration [TC50]). A selectivity index (SI) was calculated as the ratio of the […].

Data set [3] concerns C. parvum Iowa isolate. Kind of data set: NOD SCID gamma (NSG) mouse model of chronic cryptosporidiosis, fecal qPCR. The format is in vivo, NOD SCID gamma mice. How it is done:
All NOD SCID gamma mouse studies were performed in compliance with animal care guidelines and were approved by the University of Vermont Institutional Animal Care and Use Committee. NOD SCID gamma mice with normal flora (NOD.Cg-Prkdc^scid Il2rg^tm1Wjl/SzJ) ([38]) were purchased from The Jackson Laboratory (Bar Harbor, ME, USA) and were housed for at least a week for acclimatization. At the age of 4 to 5 weeks, mice were infected with 10^5 C. parvum Iowa isolate oocysts. Fecal oocyst shedding is detected 6 days after infection using a quantitative PCR (qPCR assay), so treatment was started on day 7 after infection. Mice (4 per experimental group) were treated either orally (p.o.) with MMV665917 at 30 or 60 mg/kg BID, intraperitoneally (i.p.) with MMV665917 at 60 mg/kg BID, or p.o. with 1,000 mg/kg paromomycin BID. MMV665917 was suspended in DMSO, sonicated three times, for 30 s each time, to obtain a fine suspension, aliquoted, and stored at −80°C for <10 days. On the day of treatment, aliquots of MMV665917 diluted in DMSO were thawed, mixed well using a vortexer, diluted with 1% HPMC, sonicated as before (three times for 30 s each time), mixed well, and given to mice either p.o. or by i.p. injection. A final concentration of 5% DMSO was used in 100 μl of 1% HPMC per dose. For the additional Malaria Box compounds and compound variants tested, the doses were prepared in the same way, and the specific dosages tested are given in Table S3 in the supplemental material. Mice were treated for either 4 or 7 days, allowed to recover for a week, and then sacrificed. Oocyst shedding in feces was monitored throughout by qPCR, including time points while on treatment and while monitoring for relapsed infection following completion of treatment in Fig. 2A.

For data set [4], the system named is C. parvum Iowa isolate. Kind of data set: IFN-γ knockout mouse model of acute cryptosporidiosis. The format is in vivo, C57BL/6 IFN-γ−/− mice. As to conditions: 30 mg/kg twice daily on days 4, 5, 6 postinfection. How it is done: All interferon gamma (IFN-γ) knockout mouse studies were performed in compliance with animal care guidelines and were approved by the Explora BioLabs (San Diego, CA) Institutional Animal Care and Use Committee. Four-week-old female C57BL/6 IFN-γ^−/− mice with normal flora were purchased from The Jackson Laboratory and were acclimated for 3 days prior to infection by oral gavage with 10^6 C. parvum Iowa isolate oocysts (Sterling Parasitology Laboratory, University of Arizona) suspended in sterile distilled water. At various times postinfection, mice were treated with the compound vehicle alone, clofazimine (used as a positive control), or MMV665917. As described previously, fecal parasite shedding was quantified at various times postinfection by isolating oocysts using a sucrose gradient centrifugation method ([39]), followed by staining for immunofluorescence microscopy using a fluorescein isothiocyanate-conjugated mouse anti-Cryptosporidium antibody (0.25 μg per sample) and analysis with a Guava easyCyte flow cytometer and CytoSoft data acquisition and analysis software (version 5.3; Guava Technologies, Inc.). Oocyst counts per milliliter of sample were exported to Excel (Microsoft Corp.) and were normalized to counts per milligram of feces. Final data analysis and graphing were carried out using GraphPad Prism software (version 6.01).

The subject of data set [5] is C. parvum. The data set is described as follows: Parasite persistence (time-kill) assay in HCT-8 cells. It counts as cell-based, Cryptosporidium parvum. How it is done:
Excysted C. parvum oocysts were added to >90% confluent HCT-8 cells in 384-well plates. […] At ∼24 h (i.e., the time of compound addition) and at various time intervals thereafter, parasites were washed, fixed, permeabilized, stained, and imaged as for the C. parvum growth assay. For the extended-compound-exposure experiments, the medium and compound were replaced every 3 days. A separate 384-well plate was used for each time interval. Parasite numbers were normalized to host cell nucleus numbers and are expressed as the percentage of parasites per host cell nucleus. In order to fit parasite decay curves, the effect of drugs was isolated from expected changes in parasite numbers over time by expressing the number of parasites as the percentage of the number of parasites with the control, dimethyl sulfoxide (DMSO), for each time point. Exponential decay curves were fit using GraphPad Prism software, version 6.01, and curve validity was assessed using the replicates test.

Data set [6] has as its system five mammalian cell lines. Kind of data set: Toxicity profiling in mammalian cell lines. The settings on record: based on previously reported toxicity profiling.
Details of data set [7]: method as in PMID 27467575. As to conditions: single oral dose of 55 mg/kg; cited from earlier work.
Details of data set [8]: method as in PMID 27467575. The settings on record: mouse; cited from earlier work.

pEC50: −log10 of the molar value. Where only a bound is given, the exact number is not on record here.

The pEC50 is the negative decadic logarithm of the EC50, by convention in mol/L. For the compound `O=C(Nc1ccc(Cl)cc1)N1CCN(c2ccc3nncn3n2)CC1` [MMV665917, Clc1ccc(NC(=O)N2CCN(CC2)c3ccc4nncn4n3)cc1], the negative logarithm of the EC50 (pEC50) in data set [1] is 5.39. For the same compound, the “TC50, host HCT-8 cell toxicity” value in data set [2] (48 h, CellTiter AQueous) is more than 100 µM. Further, the “selectivity index (SI)” value in data set [2] (HCT-8 TC50 versus C. parvum EC50) is more than 47. Also, the “toxic effect on host HCT-8 cell proliferation” value in data set [2] (concentrations as high as 100 μM) is “no toxic effect”. Further, the “reduction of oocyst shedding” value in data set [3] (30 mg/kg orally twice daily, 7 days, from day 7 after infection) is more than 90%. The “efficacy, oral versus intraperitoneal dosing” value in data set [3] (60 mg/kg BID p.o. or i.p., Fig. 4A) is “equally efficacious regardless of the route of administration”. The “relapse after cessation of treatment” value in data set [3] (MMV665917 30 mg/kg orally twice daily, 7 days) was “relapsed”. The “outcome after cessation of treatment” value in data set [3] (MMV665917 60 mg/kg orally twice daily, 7 days) was “apparently cured”. For the same compound, in data set [3] (dose 30 mg/kg, interval 12 h, duration 4 days), the NSG efficacy result is listed as “efficacious”. The “efficacy in IFN-γ KO mouse model of acute infection” value in data set [4] is “highly efficacious”. The “concentration giving maximal rate of parasite elimination” value in data set [5] is given as 3 × EC90. Moreover, the “parasiticidal or parasitistatic for C. parvum” value in data set [5] is listed as “parasiticidal”. Further, the “decay rate constant (r)” value in data set [5] (3× EC90, one-phase exponential decay) was 0.05346; in data set [5] (12× EC90, one-phase exponential decay), 0.05864. The “percentage of host cells infected, extended treatment” value in data set [5] (day 13 of treatment, 12 × EC90, medium and drug replaced every 3 days) was approximately 0.1%. Besides, in data set [6], the “selectivity index (SI) for C. parvum over five mammalian cell lines” value is reported as more than 20. Moreover, the “plasma MMV665917 levels over time” value in data set [7] is reported as “continued to increase for 9 h”. Besides, in data set [8], the plasma protein binding is given as 83.3%.
